Columns and labels:
[1] = biological target: T1, 5-Lipoxygenase from RBL-1 20,000 × g Supernatant (Rattus norvegicus, UniProt P12527); test: 5-lipoxygenase inhibition in 20,000 xg supernatant of homogenized RBL-1 cells (radiolabeled arachidonic acid); format: biochemical; details: in vitro, incubations in triplicate, read-out: IC50 × 10^6 Molar
T1 construct: 20,000 xg supernatant from 1.5 million homogenized RBL-1 cells; endogenous in cells; host or cells: RBL-1 cells, 20,000 xg supernatant of homogenate
T1 sequence (P12527 1-673): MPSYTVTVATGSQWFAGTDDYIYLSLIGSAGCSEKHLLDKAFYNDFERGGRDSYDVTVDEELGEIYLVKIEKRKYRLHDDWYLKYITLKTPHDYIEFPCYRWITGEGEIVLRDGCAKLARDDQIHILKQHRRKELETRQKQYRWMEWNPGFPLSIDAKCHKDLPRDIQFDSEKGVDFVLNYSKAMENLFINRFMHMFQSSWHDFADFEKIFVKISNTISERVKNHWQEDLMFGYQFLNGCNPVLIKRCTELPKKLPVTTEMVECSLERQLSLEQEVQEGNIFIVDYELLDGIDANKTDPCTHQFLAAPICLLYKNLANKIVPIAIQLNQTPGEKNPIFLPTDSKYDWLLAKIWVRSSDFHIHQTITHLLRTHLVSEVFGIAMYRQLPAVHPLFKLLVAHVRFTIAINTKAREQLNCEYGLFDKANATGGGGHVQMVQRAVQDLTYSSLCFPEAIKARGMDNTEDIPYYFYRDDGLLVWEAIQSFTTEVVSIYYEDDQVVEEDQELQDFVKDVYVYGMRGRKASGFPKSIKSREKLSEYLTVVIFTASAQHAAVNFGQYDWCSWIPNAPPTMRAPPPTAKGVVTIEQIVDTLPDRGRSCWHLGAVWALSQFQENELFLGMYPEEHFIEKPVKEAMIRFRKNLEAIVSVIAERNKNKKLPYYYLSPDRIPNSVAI
Method: Assays to determine 5-lipoxygenase inhibitory activity were performed in […] incubations containing the 20,000 xg supernatant from 1.5 million homogenized RBL-1 cells and various concentrations of the test compound. Reactions were initiated by addition of radiolabeled arachidonic acid and terminated by acidification and ether extraction. Reaction products were separated from nonconverted substrate by thin layer chromatography and measured by liquid scintillation spectroscopy. All incubations are performed in triplicate. Inhibition of 5-lipoxygenase activity was calculated as the ratio of the amount of product formed in the presence and absence of inhibitor. IC50 values (concentration of compound producing 50% enzyme inhibition) were calculated by linear regression analysis of percentage inhibition versus log inhibitor concentration plots. (Dyer, R. D.; Haviv, F.; Hanel, A. M.; Bornemier, D. A.; Carter, G. W. Fed. Proc., Fed. Am. Soc. Exp. Biol. 1984, 43, 1462A).

Leukotriene Biosynthesis = test: Inhibition of leukotriene biosynthesis in vivo, rat peritoneal anaphylaxis model; details: 200 μmol/kg oral (gavage) one hour prior to antigen challenge, peritoneal fluids 15 minutes after challenge
Method: Inhibition of the biosynthesis of leukotrienes in vivo after oral administration of compound was determined using a rat peritoneal anaphylaxis model in a similar manner as that described by Young and coworkers (Young, P. R.; Dyer, R. D.; Carter, G. W. Carter, G. W. Fed. Proc., Fed. Am. Soc. Exp. Biol. 1985, 44, 1185). In this model rats were injected intraperitoneally (ip) with rabbit antibody to bovine serum albumin (BSA) and three hours later injected ip with BSA to induce an antigen antibody response. Rats were sacrificed 15 minutes after this challenge and the peritoneal fluids were collected and analyzed for leukotriene levels. Test compounds were administered by gavage one hour prior to the antigen challenge. Percent inhibition values were determined by comparing the treatment group to the mean of the control group, and the results are presented in Table 2 for representative compounds of the present invention.

SMILES	IC50 [1]	Percent Inhibition of Leukotrienes at 200 μmol/kg (Oral Dose) (Leukotriene Biosynthesis)
CNC(=O)N(O)C(C)CSCc1ccc(CN(C)C)o1 (stereo not shown) [Example 18, N-Hydroxy-N-[2-(1-(5-N,N-dimethylaminomethyl)fur-2-ylmethylthio)-propyl]-N'-methyl urea]	27.6 µM	
CC(COCc1cccs1)N(O)C(N)=O (stereo not shown) [Example 20]	4.5 µM	
Cc1ccc(C(C)OCC(C)N(O)C(N)=O)o1 (stereo not shown) [Example 7, N-Hydroxy-N-[2-(1-[1-(5-methylfur-2-yl)]ethoxy)propyl] urea]	6.6 µM	
CC(COCc1ccco1)N(O)C(N)=O (stereo not shown) [Example 3]	12 µM	77%
Cc1cc(COCCN(O)C(N)=O)c(C)o1 [Example 9, N-Hydroxy-N-[2-(1-(2,5-dimethylfur-3yl)methoxy)ethyl] urea]	6.9 µM	
CC(OCCN(O)C(N)=O)c1cc2ccccc2s1 (stereo not shown) [Example 15, N-Hydroxy-N-[2-(1-[1-(benzo[b]thien-2-yl)]ethoxy)ethyl) urea]	0.2 µM	
Cc1ccc(COCC(C)N(O)C(N)=O)o1 (stereo not shown) [Example 5]	4.6 µM	
NC(=O)N(O)CCOCc1cc2ccccc2s1 [Example 16, N-Hydroxy-N-[2-(1-(benzo[b]thien-2-yl)methoxy)ethyl] urea]	0.67 µM	
CC(COCc1cc2ccccc2s1)N(O)C(N)=O (stereo not shown) [Example 17]	0.46 µM	89%
NC(=O)N(O)CCOCc1cccs1 [Example 19, N-Hydroxy-N-[2-(thien-2-ylmethoxy)ethyl] urea]	4.1 µM	100%
CC(CSc1ccccn1)N(O)C(N)=O (stereo not shown) [Example 2, N-hydroxy-N-[2-(1-(2-pyridyl)thio)propyl] urea]	9.7 µM	
Cc1ccc(COCC(C)N(O)C(N)=O)s1 (stereo not shown) [Example 13]	1.9 µM	
Cc1ccc(COCCN(O)C(N)=O)o1 [Example 6, N-Hydroxy-N-[2-(5-methylfur-2-ylmethoxy)ethyl] urea]	7.3 µM	
Cc1ccc(COCCN(O)C(N)=O)s1 [Example 14, N-Hydroxy-N-[2-(1-(5-methylthien-2-yl)methoxy)ethyl] urea]	3 µM	92%
CC(OCC(C)N(O)C(N)=O)c1ccco1 (stereo not shown) [Example 12, N-Hydroxy-N-[2-(1-[1-(fur-2-yl)ethoxy)]propyl] urea]	7.3 µM	
CC(CSCc1ccco1)N(O)C(N)=O (stereo not shown) [Example 1]	5.5 µM	71%
Cc1occc1COCC(C)N(O)C(N)=O (stereo not shown) [Example 10]	6 µM	75%
CC(COCc1ccsc1)N(O)C(N)=O (stereo not shown) [Example 21]	8.4 µM	
Cc1cc(COCC(C)N(O)C(N)=O)c(C)o1 (stereo not shown) [Example 8]	5.7 µM	
Cc1ccc(C(C)OCCN(O)C(N)=O)o1 (stereo not shown) [Example 4, N-Hydroxy-N-[2-(1-[1-(5-methylfur-2-yl)]ethoxy)ethyl] urea]	6.3 µM	
CC(COCc1ccoc1)N(O)C(N)=O (stereo not shown) [Example 11]	9.3 µM	78%
